Results from patent US9096593B2, “Compounds and methods for kinase modulation, and indications therefor” (Plexxikon Inc., priority 2009, dated 2015).
Read-outs that look alike come from different tables or passages of the source.

Legend:
Flt-3 kinase = Flt-3 kinase (Homo sapiens (Human), UniProt P36888); test: Flt-3 kinase biochemical activity assay (AlphaScreen, biotin-(E4Y)10 phosphorylation); settings: 100 μM ATP
Experimental: In one assay the biochemical activity IC50 values are determined with respect to inhibition of Flt-3 kinase activity, where inhibition of phosphorylation of a peptide substrate is measured as a function of compound concentration. Compounds to be tested, dissolved in DMSO (1 μL), are added to a white 384-well plate (Costar #3705). Working stocks of Flt-3 kinase (Invitrogen), biotin-(E4Y)10 substrate (Upstate Biotech, Cat#12-440), and ATP (Sigma, Cat#A-3377) are prepared in 25 mM Hepes pH 7.5, 5 mM MgCl2, 5 mM MnCl2, 1 mM DTT, and 0.01% Tween-20. All components are added to the 384-well plate for a final concentration of 1 ng/well Flt-3, 30 nM biotin-(E4Y)10 and 100 μM ATP in a volume of 20 μL. Each sample is at 5% DMSO. The plate is then incubated for 1 hour at room temperature. Just before use, working stocks of donor and acceptor beads from the AlphaScreen PY20 Detection Kit (PerkinElmer, Cat#676601M) are prepared in 25 mM Hepes pH 7.5, pH 7.4, 100 mM EDTA. 0.3% BSA. To stop the reaction, the plate is uncovered in the dark and 5 μL of Donor Beads solution (Streptavidin beads) is added to each well. The plate is incubated at room temperature for 20 minutes. Five microliters of Acceptor Beads solution (PY20 coated beads) are then added to each well. The final concentration of each bead is 10 μg/mL. The plates are incubated at room temperature for 60 minutes. Fluorescence signal is recorded on the Envision reader. Phosphorylated substrate results in binding of the PY20 antibody and association of the donor and acceptor beads such that signal correlates with kinase activity. The signal vs. compound concentration is used to determine the IC50.

CYP2C19 = CYP2C19 (Homo sapiens (Human), UniProt P33261); test: CYP enzyme inhibition, fluorescent substrate
CYP2C19, sequence (P33261 whole entry): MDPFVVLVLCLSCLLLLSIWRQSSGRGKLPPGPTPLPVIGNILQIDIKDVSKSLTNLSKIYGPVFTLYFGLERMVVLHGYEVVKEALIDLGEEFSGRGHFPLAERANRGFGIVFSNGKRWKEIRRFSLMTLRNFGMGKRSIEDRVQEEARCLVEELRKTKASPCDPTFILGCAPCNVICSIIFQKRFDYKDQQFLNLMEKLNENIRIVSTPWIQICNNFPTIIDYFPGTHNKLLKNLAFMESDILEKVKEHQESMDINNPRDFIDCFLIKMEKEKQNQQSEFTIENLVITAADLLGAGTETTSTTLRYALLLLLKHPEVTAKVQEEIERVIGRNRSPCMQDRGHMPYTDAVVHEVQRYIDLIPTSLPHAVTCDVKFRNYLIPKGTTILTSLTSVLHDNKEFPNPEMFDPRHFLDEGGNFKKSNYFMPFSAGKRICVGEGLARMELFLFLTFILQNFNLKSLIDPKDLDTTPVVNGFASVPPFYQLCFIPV
Experimental: (§1) CYP (Cytochrome P450) enzymes are the major drug metabolizing enzymes present in the liver. The inhibition of CYP enzyme activity (IC50) for each of CYP1A2, CYP2C19, CYP2C9, CYP2D6, CYP3A4(BFC) and CYP3A4(BQ) is determined for compounds, where inhibition of metabolism of a known substrate leads to a decrease in the fluorescence of the metabolized product. The fluorescence of the product is monitored as a function of compound concentration.
(§2) Compounds are dissolved in DMSO to a concentration of 100 mM. These are diluted 1 μL into 82 μL of acetonitrile. An 11 μL aliquot of this solution is then added to 204 μL of cofactor mix (1.3% NADPH Regeneration system Solution A, 1.04% NADPH Regeneration system Solution B from BD Biosciences, 5% acetonitrile and 0.05% DMSO). These are then serially diluted 1:1 (160 μL to 160 μL co-factor mix) for a total of 10 points. A 10 μL aliquot of this final mixture is dispensed into 384 well assay plates and incubated for 10 minutes at 37° C. Enzyme and substrate mix (10 μL; […] CYP1A2/5 μM CEC; 1.0 μmol CYP2C9/75 μM MFC; […] CYP2C19/25 μM CEC; 1.5 μmol CYP2D6/1.5 μM AMMC; 1.0 μmol CYP3A4/50 μM BFC; or 1.0 μmol CYP3A4/40 μM BQ) is added to these assay plates. Assay plates are incubated at 37° C. (CYP1A2-15 min; CYP2C9-45 min; CYP2C19, 2D6 and 3A4-30 min) and read in a Tecan Safire 2 plate reader (CYP1A2, 2C19 and 3A4 409 ex/460 em; CYP2C9 and 2D6409 ex/530 em). The signal versus compound concentration is used to determine the IC50. The enzymes and substrates for this assay are obtained from BD Biosciences.

CYP3A4(BFC) = CYP3A4(BFC) (Homo sapiens (Human), UniProt P08684); test: CYP enzyme inhibition, fluorescent substrate
CYP3A4(BFC), sequence (P08684 whole entry): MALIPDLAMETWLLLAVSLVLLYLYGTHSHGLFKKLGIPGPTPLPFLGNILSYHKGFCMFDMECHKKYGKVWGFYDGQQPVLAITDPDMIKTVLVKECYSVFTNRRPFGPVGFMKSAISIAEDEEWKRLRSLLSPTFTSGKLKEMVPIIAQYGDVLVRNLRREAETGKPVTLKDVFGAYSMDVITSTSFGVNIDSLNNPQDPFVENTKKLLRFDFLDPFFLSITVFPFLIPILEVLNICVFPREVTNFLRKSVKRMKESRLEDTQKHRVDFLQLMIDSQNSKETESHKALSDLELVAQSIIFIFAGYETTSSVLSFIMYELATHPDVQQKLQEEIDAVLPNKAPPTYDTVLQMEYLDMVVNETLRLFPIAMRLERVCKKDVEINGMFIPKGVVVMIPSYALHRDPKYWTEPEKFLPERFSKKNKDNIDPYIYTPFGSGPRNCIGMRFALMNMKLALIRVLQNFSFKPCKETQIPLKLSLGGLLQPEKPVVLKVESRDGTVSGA
Experimental: as §1, §2

CYP3A4(BQ) = CYP3A4(BQ) (Homo sapiens (Human), UniProt P08684); test: CYP enzyme inhibition, fluorescent substrate
CYP3A4(BQ), sequence (P08684 whole entry): as above
Experimental: as §1, §2

CYP1A2 = CYP1A2 (Homo sapiens (Human), UniProt P05177); test: CYP enzyme inhibition, fluorescent substrate
CYP1A2, sequence (P05177 whole entry): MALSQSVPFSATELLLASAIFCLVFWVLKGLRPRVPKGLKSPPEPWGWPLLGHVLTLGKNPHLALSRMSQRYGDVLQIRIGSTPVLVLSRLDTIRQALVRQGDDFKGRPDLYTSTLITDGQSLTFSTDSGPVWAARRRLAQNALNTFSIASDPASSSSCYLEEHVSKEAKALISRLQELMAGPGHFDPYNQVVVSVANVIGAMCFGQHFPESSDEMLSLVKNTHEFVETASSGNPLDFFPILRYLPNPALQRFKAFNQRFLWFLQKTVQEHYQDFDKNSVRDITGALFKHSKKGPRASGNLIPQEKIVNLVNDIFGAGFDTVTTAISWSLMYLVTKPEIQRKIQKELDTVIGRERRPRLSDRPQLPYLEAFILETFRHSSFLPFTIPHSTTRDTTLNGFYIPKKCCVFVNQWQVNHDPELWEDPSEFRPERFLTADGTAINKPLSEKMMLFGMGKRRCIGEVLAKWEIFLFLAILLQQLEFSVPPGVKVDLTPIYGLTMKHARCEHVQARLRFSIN
Experimental: as §1, §2

CYP2D6 = CYP2D6 (Homo sapiens (Human), UniProt P10635); test: CYP enzyme inhibition, fluorescent substrate; settings: read-out: Cyp IC50 (μM) 2D6
CYP2D6, sequence (P10635 whole entry): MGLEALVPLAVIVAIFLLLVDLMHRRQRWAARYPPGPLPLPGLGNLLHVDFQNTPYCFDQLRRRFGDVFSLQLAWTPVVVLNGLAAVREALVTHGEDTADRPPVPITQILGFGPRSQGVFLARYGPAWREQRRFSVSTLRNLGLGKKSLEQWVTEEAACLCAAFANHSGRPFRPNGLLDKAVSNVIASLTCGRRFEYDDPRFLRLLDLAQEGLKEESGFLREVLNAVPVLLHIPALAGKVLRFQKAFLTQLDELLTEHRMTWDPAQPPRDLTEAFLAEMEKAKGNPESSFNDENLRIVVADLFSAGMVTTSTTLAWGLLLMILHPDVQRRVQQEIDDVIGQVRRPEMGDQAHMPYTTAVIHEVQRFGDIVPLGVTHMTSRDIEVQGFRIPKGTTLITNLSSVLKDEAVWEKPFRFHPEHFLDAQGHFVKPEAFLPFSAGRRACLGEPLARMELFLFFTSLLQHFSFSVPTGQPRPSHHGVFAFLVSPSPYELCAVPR
Experimental: as §1, §2

CYP2C9 = CYP2C9 (Homo sapiens (Human), UniProt P11712); test: CYP enzyme inhibition, fluorescent substrate
CYP2C9, sequence (P11712 whole entry): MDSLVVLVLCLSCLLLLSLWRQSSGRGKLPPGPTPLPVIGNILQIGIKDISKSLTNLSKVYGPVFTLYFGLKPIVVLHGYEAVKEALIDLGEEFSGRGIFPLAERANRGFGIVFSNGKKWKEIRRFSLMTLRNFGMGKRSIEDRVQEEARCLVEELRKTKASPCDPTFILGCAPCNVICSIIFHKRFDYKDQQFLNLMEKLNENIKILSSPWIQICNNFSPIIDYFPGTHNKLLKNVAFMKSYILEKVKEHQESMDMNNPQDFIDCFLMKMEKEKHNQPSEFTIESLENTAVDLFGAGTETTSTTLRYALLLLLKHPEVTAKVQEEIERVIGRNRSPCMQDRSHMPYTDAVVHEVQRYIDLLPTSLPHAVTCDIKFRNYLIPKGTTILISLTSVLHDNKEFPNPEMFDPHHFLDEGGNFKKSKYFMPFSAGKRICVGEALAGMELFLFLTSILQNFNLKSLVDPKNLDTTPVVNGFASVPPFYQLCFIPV
Experimental: as §1, §2

[1] = read-out: Cyp IC50 (μM) 3A4(BFC), BFC substrate
[2] = read-out: Cyp IC50 (μM) 3A4(BQ), BQ substrate
[3] = human, CYP2C9 enzyme (BD Biosciences), 45 min

Flt-3 kinase, sequence (P36888 27-993): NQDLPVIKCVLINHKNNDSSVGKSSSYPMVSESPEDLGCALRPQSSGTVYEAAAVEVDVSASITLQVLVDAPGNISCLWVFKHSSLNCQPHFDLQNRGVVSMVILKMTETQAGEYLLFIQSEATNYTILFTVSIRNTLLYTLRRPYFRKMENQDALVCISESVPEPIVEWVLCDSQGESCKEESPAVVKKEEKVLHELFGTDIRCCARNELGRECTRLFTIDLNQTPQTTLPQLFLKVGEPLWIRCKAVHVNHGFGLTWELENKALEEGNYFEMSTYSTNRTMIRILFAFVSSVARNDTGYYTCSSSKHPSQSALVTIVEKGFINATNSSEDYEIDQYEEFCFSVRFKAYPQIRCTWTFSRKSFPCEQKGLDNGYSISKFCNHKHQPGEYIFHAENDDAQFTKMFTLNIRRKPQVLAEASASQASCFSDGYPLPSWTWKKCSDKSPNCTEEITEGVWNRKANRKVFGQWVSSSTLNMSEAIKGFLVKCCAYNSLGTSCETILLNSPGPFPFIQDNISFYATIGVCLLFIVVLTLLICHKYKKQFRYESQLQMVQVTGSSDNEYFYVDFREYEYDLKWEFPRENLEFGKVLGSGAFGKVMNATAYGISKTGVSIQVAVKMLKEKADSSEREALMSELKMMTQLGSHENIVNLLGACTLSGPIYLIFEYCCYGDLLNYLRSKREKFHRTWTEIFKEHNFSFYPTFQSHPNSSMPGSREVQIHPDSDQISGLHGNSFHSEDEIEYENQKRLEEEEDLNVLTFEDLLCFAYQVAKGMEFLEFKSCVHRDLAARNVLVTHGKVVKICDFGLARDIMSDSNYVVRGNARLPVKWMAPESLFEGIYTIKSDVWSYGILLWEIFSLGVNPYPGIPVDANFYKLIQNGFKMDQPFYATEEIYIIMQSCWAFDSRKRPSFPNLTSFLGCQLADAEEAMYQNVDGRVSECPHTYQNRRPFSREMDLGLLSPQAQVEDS

Row | SMILES | IC50 (Flt-3 kinase) [µM] | IC50 (CYP2C19; read-out: Cyp IC50 (μM) 2C19) [µM] | IC50 (CYP3A4(BFC); [1]) [µM] | IC50 (CYP3A4(BQ); [2]) [µM] | IC50 (CYP1A2) [µM] | IC50 (CYP2D6) [µM] | IC50 (CYP2C9; read-out: Cyp IC50 (μM) 2C9) [µM] | IC50 (CYP3A4(BFC)) [µM] | IC50 (CYP3A4(BQ)) [µM] | IC50 (CYP1A2; human, 15 min) [µM] | IC50 (CYP2C9; [3]) [µM] | IC50 (CYP2C9) [µM] | IC50 (CYP2C19) [µM] | IC50 (CYP1A2; read-out: Cyp IC50 (μM) 1A2) [µM]
1 | Clc1cnc2[nH]cc(Cc3ccc(NCc4ccc(Cl)nc4)nc3)c2c1 [Compound P-2003] | < 0.1 | 5 to 10 | 5 to 10 | > 10 | > 10 | > 10 | < 5 |  |  |  |  |  |  | 
2 | Cc1cnc2[nH]cc(Cc3ccc(NCc4ccc(C(F)(F)F)nc4)nc3F)c2c1 [Compound P-2031, [6-Fluoro-5-(5-methyl-1H-pyrrolo[2,3-b]pyridin-3-ylmethyl)-pyridin-2-yl]-(6-trifluoromethyl-pyridin-3-ylmethyl)-amine] | < 0.1 |  |  |  |  | > 10 |  | 5 to 10 | 5 to 10 | > 10 | < 5 |  |  | 
3 | COc1cnc2[nH]cc(Cc3ccc(NCc4ccc(Cl)cc4)nc3F)c2c1 [Compound P-2032, (4-Chloro-benzyl)-[6-fluoro-5-(5-methoxy-1H-pyrrolo[2,3-b]pyridin-3-ylmethyl)-pyridin-2-yl]-amine] | < 0.1 |  | > 10 | > 10 | 5 to 10 | > 10 |  |  |  |  | < 5 |  |  | 
4 | COc1cnc2[nH]cc(Cc3ccc(NCc4ccccc4Cl)nc3F)c2c1 [Compound P-2034, (2-chloro-benzyl)-[6-fluoro-5-(5-methoxy-1H-pyrrolo[2,3-b]pyridin-3-ylmethyl)-pyridin-2-yl]-amine] | < 0.1 |  |  |  |  |  |  |  |  |  |  |  |  | 
5 | COc1ccc(CNc2ncc(Cc3c[nH]c4ncc(Cl)cc34)cn2)cn1 [Compound P-2038, [5-(5-Chloro-1H-pyrrolo[2,3-b]pyridin-3-ylmethyl)-pyrimidin-2-yl]-(6-methoxy-pyridin-3-ylmethyl)-amine] | < 0.1 | > 10 | > 10 | > 10 |  |  |  |  |  | > 10 |  | 5 to 10 |  | 
6 | Fc1nc(NCc2ccc(Cl)cn2)ccc1Cc1c[nH]c2ncccc12 [Compound P-2044, (5-Chloro-pyridin-2-ylmethyl)-[6-fluoro-5-(1H-pyrrolo[2,3-b]pyridin-3-ylmethyl)-pyridin-2-yl]-amine] | > 0.1 |  |  |  |  |  |  |  |  |  |  |  |  | 
7 | COc1ncc(CNc2ncc(Cc3c[nH]c4ncc(C)cc34)cn2)cc1F [Compound P-2073, (5-Fluoro-6-methoxy-pyridin-3-ylmethyl)-[5-(5-methyl-1H-pyrrolo[2,3-b]pyridin-3-ylmethyl)-pyrimidin-2-yl]-amine] |  | > 10 |  | > 10 |  | > 10 | < 5 | 5 to 10 |  | > 10 |  |  |  | 
8 | Cc1cc(CNc2ccc(Cc3c[nH]c4ncc(Cl)cc34)c(F)n2)ccn1 [Compound P-2075, [5-(5-Chloro-1H-pyrrolo[2,3-b]pyridin-3-ylmethyl)-6-fluoro-pyridin-2-yl]-(2-methyl-pyridin-4-ylmethyl)-amine] |  | < 5 | < 5 |  | 5 to 10 | > 10 | < 5 |  | 5 to 10 |  |  |  |  | 
9 | Cc1cnc2[nH]cc(Cc3cnc(NCc4cccc(C)n4)nc3)c2c1 [Compound P-2079, (6-Methyl-pyridin-2-ylmethyl)-[5-(5-methyl-1H-pyrrolo[2,3-b]pyridin-3-ylmethyl)-pyrimidin-2-yl]-amine] |  |  | < 5 |  |  | > 10 |  |  | 5 to 10 | > 10 |  | 5 to 10 | 5 to 10 | 
10 | Cc1cnc2[nH]cc(Cc3cnc(NCc4cccc(N5CCOCC5)n4)nc3)c2c1 [Compound P-2081, [5-(5-Methyl-1H-pyrrolo[2,3-b]pyridin-3-ylmethyl)-pyrimidin-2-yl]-(6-morpholin-4-yl-pyridin-2-ylmethyl)-amine] |  | < 5 | < 5 |  |  | > 10 | < 5 |  | 5 to 10 | > 10 |  |  |  | 
11 | Cc1cnc2[nH]cc(Cc3cnc(NCc4cccc(N5CCCC5)n4)nc3)c2c1 [Compound P-2082, [5-(5-Methyl-1H-pyrrolo[2,3-b]pyridin-3-ylmethyl)-pyrimidin-2-yl]-(6-pyrrolidin-1-yl-pyridin-2-ylmethyl)-amine] |  | < 5 | < 5 | < 5 |  | > 10 | < 5 |  |  | > 10 |  |  |  | 
12 | Cc1cnc2[nH]cc(Cc3ccc(NCc4ccc(Cl)nc4)nc3F)c2c1 [Compound P-2088, (6-Chloro-pyridin-3-ylmethyl)-[6-fluoro-5-(5-methyl-1H-pyrrolo[2,3-b]pyridin-3-ylmethyl)-pyridin-2-yl]-amine] |  | < 5 |  |  |  | > 10 | < 5 | 5 to 10 | 5 to 10 |  |  |  |  | > 10
13 | Cc1cnc2[nH]cc(Cc3ccc(NCc4cccnc4F)nc3F)c2c1 [Compound P-2103, [6-Fluoro-5-(5-methyl-1H-pyrrolo[2,3-b]pyridin-3-ylmethyl)-pyridin-2-yl]-(2-fluoro-pyridin-3-ylmethyl)-amine] |  | < 5 |  |  |  | > 10 | < 5 | 5 to 10 | 5 to 10 | > 10 |  |  |  | 
14 | Cc1cnc2[nH]cc(Cc3ccc(NCc4ccnc(F)c4)nc3F)c2c1 [Compound P-2118, [6-Fluoro-5-(5-methyl-1H-pyrrolo[2,3-b]pyridin-3-ylmethyl)-pyridin-2-yl]-(2-fluoro-pyridin-4-ylmethyl)-amine] |  | < 5 |  | > 10 |  | > 10 |  | 5 to 10 |  | > 10 |  | 5 to 10 |  | 
15 | COc1ncccc1CNc1ncc(Cc2c[nH]c3ncc(C)cc23)cn1 [Compound P-2139, (2-Methoxy-pyridin-3-ylmethyl)-[5-(5-methyl-1H-pyrrolo[2,3-b]pyridin-3-ylmethyl)-pyrimidin-2-yl]-amine] |  | > 10 |  | > 10 |  | > 10 |  | 5 to 10 |  | > 10 |  | 5 to 10 |  | 
16 | Cc1cnc2[nH]cc(Cc3cnc(NCc4ccc(C(F)(F)F)nc4)c(F)c3)c2c1 [Compound P-2146, [3-Fluoro-5-(5-methyl-1H-pyrrolo[2,3-b]pyridin-3-ylmethyl)-pyridin-2-yl]-(6-trifluoromethyl-pyridin-3-ylmethyl)-amine] |  | < 5 | > 10 | > 10 |  | > 10 |  |  |  | > 10 |  | 5 to 10 |  | 
17 | COc1cnc2[nH]cc(Cc3cnc(NCc4ccc(C(F)(F)F)nc4)c(F)c3)c2c1 [Compound P-2147, [3-Fluoro-5-(5-methoxy-1H-pyrrolo[2,3-b]pyridin-3-ylmethyl)-pyridin-2-yl]-(6-trifluoromethyl-pyridin-3-ylmethyl)-amine] |  | < 5 |  |  |  | > 10 | > 10 | 5 to 10 | 5 to 10 | > 10 |  |  |  | 
